Experimental data from patent US9249145B2, “Heterocyclic derivatives of pyrazol-4-yl-pyrrolo[2,3-d]pyrimidines as janus kinase inhibitors” (Incyte Holdings Corporation, priority 2009, dated 2016).
Where a name gives a salt, the structure may show the parent alone. Read-outs that look alike come from different tables or passages of the source.

Legend:
[1] = biological target: T1, Jak2 (a.a. 828-1132) (Homo sapiens, UniProt O60674); assay: In vitro JAK kinase assay (HTRF, phosphorylation of biotinylated peptide), JAK2; assay type: biochemical; conditions: 1 mM ATP, read-out: JAK2 IC50 (nM) @ 1 mM ATP
T1 construct: Jak2 (a.a. 828-1132); His tag (N); made in house; host or cells: insect cells (baculovirus)
T1 sequence (O60674 828-1132): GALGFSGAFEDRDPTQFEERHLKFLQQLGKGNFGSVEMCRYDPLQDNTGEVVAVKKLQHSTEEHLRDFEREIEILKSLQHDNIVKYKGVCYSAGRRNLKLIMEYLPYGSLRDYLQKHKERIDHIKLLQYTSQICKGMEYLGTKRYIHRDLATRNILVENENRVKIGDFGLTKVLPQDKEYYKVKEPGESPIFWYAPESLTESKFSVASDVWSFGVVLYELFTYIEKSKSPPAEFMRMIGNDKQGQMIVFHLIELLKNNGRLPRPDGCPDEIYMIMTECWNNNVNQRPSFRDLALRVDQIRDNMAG
Summary of the method: (§1)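 IC50 from HTRF detection (Eu-Py20 antibody, SA-APC, 40 min) after EDTA quench. Reactions ran 1 h at room temperature with 500 nM biotinylated peptide in Tris pH 7.8 buffer with NaCl, DTT, BSA; ATP 90 μM for JAK1, 30 μM for JAK2 (Km), or 1 mM. Enzymes: His-tagged catalytic domains from insect cells.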

[2] = biological target: T2, human JAK1 (a.a. 837-1142) (Homo sapiens, UniProt P23458); assay: In vitro JAK kinase assay (HTRF, phosphorylation of biotinylated peptide), JAK1; assay type: biochemical; conditions: 1 mM ATP, read-out: JAK1 IC50 (nM) @ 1 mM ATP
T2 construct: The catalytic domains of human JAK1 (a.a. 837-1142); His tag (N); made in house; host or cells: insect cells (baculovirus)
T2 sequence (P23458 849-1154): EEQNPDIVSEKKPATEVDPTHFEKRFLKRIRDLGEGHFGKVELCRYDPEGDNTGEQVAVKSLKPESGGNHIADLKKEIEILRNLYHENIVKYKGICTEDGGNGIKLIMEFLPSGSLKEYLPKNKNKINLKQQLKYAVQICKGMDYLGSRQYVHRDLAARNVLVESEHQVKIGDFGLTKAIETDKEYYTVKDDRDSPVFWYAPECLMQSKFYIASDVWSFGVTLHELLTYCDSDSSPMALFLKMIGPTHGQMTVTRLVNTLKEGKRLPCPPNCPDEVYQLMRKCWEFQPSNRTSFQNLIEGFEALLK
Summary of the method: as §1

| SMILES | IC50 ([1]; Examples 12-91) | IC50 ([2]; Examples 12-91) | IC50 ([1]; Examples 92-162) | IC50 ([2]; Examples 92-162) |
| --- | --- | --- | --- | --- |
| N#CCC(CN1CCN(C(=O)c2cc(F)cc(C#N)c2)CC1)n1ccc(-c2ncnc3[nH]ccc23)c1 (stereo not shown) [Example 86, 3-(4-(2-(3-(7H-pyrrolo[2,3-d]pyrimidin-4-yl)-1H-pyrrol-1-yl)-3-cyanopropyl)piperazine-1-carbonyl)-5-fluorobenzonitrile trifluoroacetate salt] | > 100 nM | 10 to 50 nM |  |  |
| N#CCC(CN1CCN(C(=O)c2ncc(C#N)cc2F)CC1)n1ccc(-c2ncnc3[nH]ccc23)c1 (stereo not shown) [Example 87, 6-(4-(2-(3-(7H-pyrrolo[2,3-d]pyrimidin-4-yl)-1H-pyrrol-1-yl)-3-cyanopropyl)piperazine-1-carbonyl)-5-fluoronicotinonitrile] | > 100 nM | 10 to 50 nM |  |  |
| N#CCC(CN1CCN(C(=O)c2ccc(C#N)cc2)CC1)n1ccc(-c2ncnc3[nH]ccc23)c1 (stereo not shown) [Example 88, 4-(4-(2-(3-(7H-pyrrolo[2,3-d]pyrimidin-4-yl)-1H-pyrrol-1-yl)-3-cyanopropyl)piperazine-1-carbonyl)benzonitrile] | > 100 nM | 10 to 50 nM |  |  |
| Cc1cc(S(=O)(=O)N2CCN(CC(C)n3cc(-c4ncnc5[nH]ccc45)cn3)CC2)c(C(F)(F)F)o1 (stereo not shown) [Example 92, 4-{1-[1-methyl-2-(4-{[5-methyl-2-(trifluoromethyl)-3-furyl]sulfonyl}piperazin-1-yl)ethyl]-1H-pyrazol-4-yl}-7H-pyrrolo[2,3-d]pyrimidine] |  |  | > 100 nM | 20 to 50 nM |
| CC(CN1CCN(S(=O)(=O)c2ccc(Cl)s2)CC1)n1cc(-c2ncnc3[nH]ccc23)cn1 (stereo not shown) [Example 93, 4-[1-(2-{4-[(5-chloro-2-thienyl)sulfonyl]piperazin-1-yl}-1-methylethyl)-1H-pyrazol-4-yl]-7H-pyrrolo[2,3-d]pyrimidine] |  |  | > 100 nM | 20 to 50 nM |

The next lines start with the values.

| IC50 ([1]; Examples 12-91) | IC50 ([2]; Examples 12-91) | IC50 ([1]; Examples 92-162) | IC50 ([2]; Examples 92-162) | SMILES |
| --- | --- | --- | --- | --- |
| 10 to 50 nM | < 10 nM |  |  | N#CCC(CN1CCN(C(=O)c2ccc(F)cn2)CC1)n1ccc(-c2ncnc3[nH]ccc23)c1 (stereo not shown) [Example 83, 3-(3-(7H-pyrrolo[2,3-d]pyrimidin-4-yl)-1H-pyrrol-1-yl)-4-(4-(5-fluoropicolinoyl)piperazin-1-yl)butanenitrile] |
| 10 to 50 nM | 10 to 50 nM |  |  | N#CCC(CN1CCN(C(=O)c2ncc(Cl)cc2F)CC1)n1ccc(-c2ncnc3[nH]ccc23)c1 (stereo not shown) [Example 84, 3-(3-(7H-pyrrolo[2,3-d]pyrimidin-4-yl)-1H-pyrrol-1-yl)-4-(4-(5-chloro-3-fluoropicolinoyl)piperazin-1-yl)butanenitrile] |
| > 100 nM | 10 to 50 nM |  |  | N#CCC(CN1CCN(C(=O)c2ccc(F)c(OC(F)(F)F)c2)CC1)n1ccc(-c2ncnc3[nH]ccc23)c1 (stereo not shown) [Example 85, 3-(3-(7H-pyrrolo[2,3-d]pyrimidin-4-yl)-1H-pyrrol-1-yl)-4-(4-(4-fluoro-3-(trifluoromethoxy)benzoyl)piperazin-1-yl)butanenitrile] |
| > 100 nM | 10 to 50 nM |  |  | N#CCC(CN1CCN(C(=O)c2ncc(C(F)(F)F)cc2F)CC1)n1ccc(-c2ncnc3[nH]ccc23)c1 (stereo not shown) [Example 89, 3-(3-(7H-pyrrolo[2,3-d]pyrimidin-4-yl)-1H-pyrrol-1-yl)-4-(4-(3-fluoro-5-(trifluoromethyl)picolinoyl)piperazin-1-yl)butanenitrile] |
| < 10 nM | < 10 nM |  |  | N#CCC(CN1CCN(C(=O)c2ccc(F)cc2F)CC1)n1ccc(-c2ncnc3[nH]ccc23)c1 (stereo not shown) [Example 90, 3-(3-(7H-pyrrolo[2,3-d]pyrimidin-4-yl)-1H-pyrrol-1-yl)-4-(4-(2,4-difluorobenzoyl)piperazin-1-yl)butanenitrile] |
| 10 to 50 nM | < 10 nM |  |  | N#CCC(CN1CCN(C(=O)c2ccc(C(F)F)cc2F)CC1)n1ccc(-c2ncnc3[nH]ccc23)c1 (stereo not shown) [Example 91, 3-(3-(7H-pyrrolo[2,3-d]pyrimidin-4-yl)-1H-pyrrol-1-yl)-4-(4-(4-(difluoromethyl)-2-fluorobenzoyl)piperazin-1-yl)butanenitrile] |
